Source: PMC12648101, “Targeting SARS-CoV-2 main protease for the discovery of a broad-spectrum COVID-19 inhibitor by intensive multi-tiered validation” (Acta Pharmaceutica Sinica. B, 2025)
Like-named read-outs stand apart in the source and are kept apart here.

Tested on: SARS-CoV-2 strains and variants (wild-type, Delta, Omicron BA.1.1, BA.2.3, BA.4, BA.5)
Assay: Antiviral CPE assay in Vero E6 cells, summary over all tested strains
Type: cell-based
Details: Severe acute respiratory syndrome coronavirus 2, Vero C1008

Row | SMILES | EC50 (read-out: EC50 values against a range of SARS-CoV-2 variants) [nM] | EC50 (read-out: EC50 for the tested SARS-CoV-2 strains and variants) [nM]
1 | O=C(O)C[C@@H]1C(=O)O[C@H]2[C@@H]3OC(=O)c4cc(O)c(O)c(O)c4-c4c(cc(O)c(O)c4O)C(=O)OC[C@H]2O[C@@H](OC(=O)c2cc(O)c(O)c(O)c2)[C@@H]3OC(=O)c2cc(O)c(O)c3c2[C@H]1[C@H](O)C(=O)O3 [CHLA, chebulagic acid] | < 2000 | 
2 | CC(C)(C)[C@H](NC(=O)C(F)(F)F)C(=O)N1C[C@H]2[C@@H]([C@H]1C(=O)N[C@H](C#N)C[C@@H]1CCNC1=O)C2(C)C [PF-07321332, reference compound] |  | ~50
